Measurements: US20040235722A1, “Epf receptor assays, compounds and therapeutic compositions” (priority 2001, published 2004)
Values joined by “and” are separate entries in the source; they are usually repeats but may differ in a detail not shown here. Equal entries are not always repeated. Where two headings read alike, the source gives them in different places. Blank lines part the entries; values can stand above or below the molecule they belong to. Where no end group is shown, it is not given here.

Assays:
[1] = target: T1, hDRR7 receptor (Homo sapiens, UniProt Q96LB1); assay: FLIPR calcium assay, HEK293 cells transiently co-transfected with hDRR7 and Gα16; type: cell-based; conditions: for EC50: MrgX2 taken as hDRR7, FLIPR Ca2+ transients (FIG. 10), read-out: MrgX2 (pEC50) (converted)
T1 construct: expressed in transfected cells; host or cells: HEK293
T1 sequence (Q96LB1 1-330): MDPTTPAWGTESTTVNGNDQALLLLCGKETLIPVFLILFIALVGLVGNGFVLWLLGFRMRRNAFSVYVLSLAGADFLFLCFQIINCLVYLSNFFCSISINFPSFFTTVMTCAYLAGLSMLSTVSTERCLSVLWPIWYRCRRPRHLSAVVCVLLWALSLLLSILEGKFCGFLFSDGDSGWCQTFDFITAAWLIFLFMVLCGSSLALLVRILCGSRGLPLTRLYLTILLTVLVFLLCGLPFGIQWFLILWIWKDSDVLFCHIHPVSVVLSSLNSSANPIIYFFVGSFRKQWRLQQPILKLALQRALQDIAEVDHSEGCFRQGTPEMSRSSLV
Protocol: (§1) The hDRR4 expression plasmid or the hDRR7 expression plasmid was transiently co-transfected with a Gα16-pcDNA3 contruct using the FuGENE 6 reagent (Roche Molecular Biochemicals, Mannheim, Germany) into HEK293 cells. The cells were loaded with Fluo-4 (Molecular Probes, Eugene, Oreg., U.S.A.) according to the recommendations of the supplier. Subsequently the cells were assayed in the FLIPR instrument (Molecular Devices, Sunnyvale, Calif., U.S.A.) for Ca^2+ transients.
as §1, with “The” for “The hDRR4 expression plasmid or the”
(§2) Activation of orphan GPCR hDRR7 (SEQ ID NO:12) by the HDRR binding fragment of EPF (SEQ ID NO: 8) at a test concentration of 150 nM after transient co-transfection with Gα16-pcDNA into HEK293 cells. Relative fluorescence units (RFU) were determined by loading the cells with Fluo-4 (Molecular Probes, Eugene, Oreg., U.S.A.).
as §1, with “construct” for “contruct”, “Fluo4” for “Fluo-4”
(§3) The purified peptides or dried tissue fractions were dissolved in calcium buffer and loaded onto regular multi-well 96 plates. Subsequently the cells were assayed in the FLIPR instrument (Molecular Devices, Sunnyvale, Calif., U.S.A.) for Ca^2+ transients. For the EPF-related peptides the following pEC50 values were determined;

[2] = target: T2, hDRR4 (Homo sapiens, UniProt Q96LB2); assay: FLIPR calcium assay, HEK293 cells transiently co-transfected with hDRR4 and Gα16; type: cell-based; parameters: The full length reading frame was inserted into the mammalian expression vector pcDNA3; expressed in transfected cells; host or cells: HEK293
Protocol: as §1
(§4) Activation of orphan GPCR hDRR4 (SEQ ID NO:2) by the hDRR binding fragment of EPF (SEQ ID NO:8) at a test concentration of 150 nM was measured in Hek293 cells co-transfected with Gα16-pcDNA. Relative fluorescence units (RFU) were determined by loading the cells with Fluo-4 (Molecular Probes, Eugene, Oreg., U.S.A.).
as §1, with “construct” for “contruct”, “Fluo4” for “Fluo-4”
as §3

[3] = target: T2, hDRR4; assay: Stimulation of hDRR4 with angiotensin II and III (re-test of WO 99/32519); conditions: claimed in WO 99/32519; re-examined by present inventors
[4] = system: Hek 293 cells only transfected with the Gα16-pcDNA expression vector; assay: FLIPR calcium assay, control cells without receptor; type: cell-based, human; conditions: test concentration 150 nM, no hDRR receptor (FIG. 3, FIG. 4)
Protocol: as §1, §4, §2

[5] = target: T3, GPCR RC56.3.1 (adenine receptor) (Rattus norvegicus, UniProt Q7TN49); assay: [3H]Adenine binding to RC56.1.3 transfected cells; conditions: tritiated adenine
T3 construct: expressed in transfected cells; host or cells: COS cells (membranes)
T3 sequence (Q7TN49 1-304): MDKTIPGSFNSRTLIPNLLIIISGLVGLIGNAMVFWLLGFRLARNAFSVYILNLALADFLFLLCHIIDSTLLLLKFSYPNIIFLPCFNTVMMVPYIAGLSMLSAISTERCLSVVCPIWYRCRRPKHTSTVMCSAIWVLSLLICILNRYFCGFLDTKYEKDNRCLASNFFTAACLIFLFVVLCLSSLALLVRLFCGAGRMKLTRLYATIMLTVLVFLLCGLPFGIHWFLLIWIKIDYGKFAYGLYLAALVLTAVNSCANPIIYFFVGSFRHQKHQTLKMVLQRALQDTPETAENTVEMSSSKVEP
Protocol: (§5) The membranes were prepared as total particulate fractions. The cell lines were cultured to 90% confluency on 145 mm petri dishes and treated with 5 mM sodium butyrate, 24 hours before collection. The culturing medium was removed and the cells were washed twice with ice-cold phosphate-buffered saline (PBS w/o Ca^2+ and Mg^2+), scraped from the plates in 50 mM Tris-HCl buffer, pH 7.4, and collected by centrifugation (10 minutes at 16,000 RPM at 4° C.). The cell pellet was re-suspended in hypotonic 5 mM Tris-HCl buffer, pH 7.4, and homogenized with an Ultra Turrax homogenizer. The homogenate was centrifuged at 18,000 RPM for 20 minutes at 4° C. The final pellet was re-suspended in 50 mM Tris-HCl buffer, pH 7.4 and stored in aliquots at −70° C. A protein determination was performed using the Bradford protein assay (Biorad) using bovine serum albumin (BSA) as standard.
(§6) [^3H]Adenine binding experiments were performed to characterize transiently transfected cell lines. Membranes were thawed on ice and diluted in 50 mM HEPES buffer, pH 7.4 supplemented with 10 mM MgCl2 and 1 mM EGTA. […] Samples were counted in a β-scintillation counter after at least 6 hours to permit the glass fiber filters to become uniformly translucent. […]
(§7) Specific binding was calculated as difference between counts in the presence and absence of 1 μM unlabeled adenine.

[6] = target: T2, hDRR4; assay: [3H]Adenine binding to membranes of hDRR4 transfected cells; conditions: tritiated adenine
Protocol: as §5, §6, §7

[7] = target: T4, human Dorsal Root Receptor 7 (hDRR7) (human, UniProt Q96LB1 1-330); assay: cell-based or functional assay
T4 sequence: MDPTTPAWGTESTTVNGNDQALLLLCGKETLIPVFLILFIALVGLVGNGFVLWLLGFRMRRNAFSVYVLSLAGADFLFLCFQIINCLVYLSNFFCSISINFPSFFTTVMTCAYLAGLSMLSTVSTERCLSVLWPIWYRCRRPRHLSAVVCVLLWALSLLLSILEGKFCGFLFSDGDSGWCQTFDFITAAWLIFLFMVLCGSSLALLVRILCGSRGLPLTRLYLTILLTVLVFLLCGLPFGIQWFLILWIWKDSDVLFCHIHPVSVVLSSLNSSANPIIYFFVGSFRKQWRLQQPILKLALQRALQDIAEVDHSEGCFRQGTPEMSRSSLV

[8] = target: T5, human Dorsal Root Receptor 4 (hDRR4) (human, UniProt Q96LB2 1-322); assay: cell-based or functional assay
[9] = target: T4, human Dorsal Root Receptor 7 (hDRR7); assay: cell-based or functional assay; remark: listed apart in the source
[10] = target: T5, human Dorsal Root Receptor 4 (hDRR4); assay: cell-based or functional assay; remark: listed apart in the source
[11] = MrgX1 = hDRR4, FLIPR Ca2+ transients (FIG. 9), read-out: MrgX1 (pEC50) (converted)

T5 sequence (Q96LB2 whole entry): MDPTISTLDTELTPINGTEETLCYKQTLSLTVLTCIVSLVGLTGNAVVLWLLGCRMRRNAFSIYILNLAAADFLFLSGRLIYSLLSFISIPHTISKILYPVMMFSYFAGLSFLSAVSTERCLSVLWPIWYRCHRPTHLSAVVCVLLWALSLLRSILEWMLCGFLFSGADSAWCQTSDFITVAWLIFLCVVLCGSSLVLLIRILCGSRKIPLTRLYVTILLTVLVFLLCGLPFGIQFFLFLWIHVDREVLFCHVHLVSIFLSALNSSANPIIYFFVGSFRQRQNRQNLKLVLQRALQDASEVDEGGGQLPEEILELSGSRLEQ
T2 sequence (Q96LB2 whole entry): as above

EC50 [1]: 820 nM
EC50 [2, 11]: 99.3 nM
Molecule: LGQAFRKFLPLFDRVLVE [EPF 1-18, LGQAFRKFLPLFDRVLVE]

EC50 [1]: 873 nM
EC50 [2, 11]: 15.1 nM
Molecule: LGQAFRKFLPLFDRVL [EPF 1-16, LGQAFRKFLPLFDRVL]

Stimulation of hDRR4 by angiotensin (angiotensin receptor characterization) [3]: could not be confirmed
Molecule: angiotensin III

Activation of hDRR7 (relative fluorescence units) ([1]; test concentration 150 nM, Fluo-4 (FIG. 4)): Activation
EC50 ([2]; FLIPR calcium assay, different test concentrations (FIG. 7), read-out: EC50-value on hDRR4 receptor): 10.6 to 12 nM and 12 nM
Activation of hDRR4 (relative fluorescence units) ([2]; test concentration 150 nM, Fluo-4 (FIG. 3)): Activation
Molecule: AFRKFLPLFDRVLVERSA [SEQ ID NO:8, AFRKFLPLFDRVLVERSA]
Response of cells transfected with Gα16 only [4]: did not response

Specific adenine binding to RC56.1.3 transfected cells [5]: clear specific adenine binding
Specific adenine binding to hDRR4 [6]: no specific adenine binding
Specific response on hDRR4 in FLIPR-based cellular assay ([2]; HEK293 with and without co-transfection of chimeric G proteins or Gα16): no specific response
Molecule: Nc1ncnc2nc[nH]c12 [adenine]

Stimulation of hDRR4 by angiotensin (angiotensin receptor characterization) [3]: could not be confirmed
Molecule: angiotensin II (DRVYIHPF; Angiotensin-2; UniProt P01019 25-32, looked up)

EC50-value, FLIPR calcium assay [7]: 354 nM
EC50-value [8]: 10.6 nM and 6 to 12 nM
EC50-value, FLIPR calcium assay [8]: 12 nM
Molecule: AFRKFLPLFDRVLVERSA [hDRR binding fragment of EPF (SEQ ID NO:8)]

pEC50, FLIPR Ca2+ transients [9]: 6.06 pEC50
pEC50, FLIPR Ca2+ transients [10]: 7.82 pEC50
Molecule: LGQAFRKFLPLFDRVL [EPF 1-16 (LGQAFRKFLPLFDRVL, SEQ ID NO: 21)]

pEC50, FLIPR Ca2+ transients [9]: 6.09 pEC50
pEC50, FLIPR Ca2+ transients [10]: 7 pEC50
Molecule: LGQAFRKFLPLFDRVLVE [EPF 1-18 (LGQAFRKFLPLFDRVLVE, SEQ ID NO: 19)]
